Source: patent US20190030053A1, “COMPOSITION FOR INCREASING EXPRESSION OF PGC-1alpha” (BENEBIOSIS CO., LTD., priority 2016, published 2019)
“Also recorded” adds a separate entry of the source.

How the values were obtained:
[1] = test system: PGC-1α and related genes; experiment: Abdominal fat gene expression in high-fat diet ob mouse models; format: in vivo; conditions: ob mice, oral 0.1 mg/kg/day, 10 weeks
Description: In order to investigate gene expression changes and topical fat removal effects by treatment with SL (3′-SL & 6′-SL) composition in mouse models, 4-week-old male ob mouse (C57BL/6J-ob/ob) models were purchased from Central Lab Animal (Korea). Water was freely accessible, and a high-fat diet (Rodent Diet with 60 kcal % fat) was supplied for two weeks. […]
(§1) Sialyllactose or DW was orally administered daily. […] The dietary intake and body weight change were measured every 5 days. […]
Gene expression changes by the treatment with SL (3′-SL & 6′-SL) compositions were quantitatively compared in the abdominal part. RNA was extracted by TRIzol agent (Invitrogen). cDNA was synthesized by using RNA, which has been extracted as above and quantified, and a reverse transcription system (Promega, USA). The expression patterns of PGC-1α and related genes were measured by using pre-designed primers and probes (Applied Biosystems; PGC-1α, Mm00447181_m1, GAPDH, and Mm99999915_q1) for the synthesized cDNA and analysis targets (Fndc5, PGC-1α, Erra, UCP1, SOD2, and GPX1). […]

[2] = test system: PGC-1α and related genes; experiment: Gene expression by body parts in aging stimulation models; format: in vivo, mouse; conditions: SAM P1/Sku Slc mice, oral 0.1 mg/kg/day, 12 weeks, organs and skeletal muscles
Description: In order to investigate the gene expression changes by body parts by the treatment with SL (3′-SL & 6′-SL) compositions in aging stimulation models, 4-week-old male aging stimulation model mice (SAM P1/Sku Slc) were purchased from Central Lab Animal (Korea). Water was freely accessible, and a commercially available pellet feed (Dooyeul Biotech, Korea) was given for one week. […]
as §1
The gene expression changes by administration of the SL (3′-SL & 6′-SL) compositions were quantitatively compared for eight main organs (heart, hippocampus, brain, spinal cord, lung, liver, spleen, and kidney), three skeletal muscles (soleus muscle, quadriceps femoris muscle, and gastrocnemius muscle), and the like. RNA was extracted by TRIzol agent (Invitrogen). cDNA was synthesized by using RNA, which has been extracted as above and quantified, and a reverse transcription system (Promega, USA). The expression patterns of PGC-1α and related genes were measured by using pre-designed primers and probes (Applied Biosystems; PGC-1α, Mm00447181_m1, GAPDH, and Mm99999915_q1) for the synthesized cDNA and analysis targets (Fndc5, PGC-1α, Erra, UCP1, SOD2, and GPX1). […]

| Compound | expression levels of analysis targets (Fndc5, PGC-1α, Erra, UCP1, SOD2, GPX1) in abdominal fat vs negative control [1] | expression levels of analysis targets (Fndc5, PGC-1α, Erra, UCP1, SOD2, GPX1) vs control group ([2]; 0.1 mg/kg/day) | expression levels of analysis targets (Fndc5, PGC-1α, Erra, UCP1, SOD2, GPX1) vs control group [2] |
| --- | --- | --- | --- |
| CC(=O)N[C@H]1[C@H]([C@H](O)[C@H](O)CO)O[C@@](O[C@H]2[C@@H](O)[C@@H](CO)O[C@@H](O[C@H]3[C@H](O)[C@@H](O)C(O)O[C@@H]3CO)[C@@H]2O)(C(=O)O)C[C@@H]1O (stereo partly drawn) [3′-SL, α-NeuNAc-(2→3)-β-D-Gal-(1→4)-D-Glc] | relatively low compared with 6′-SL | significant increases; also recorded: relatively low compared with 6′-SL |  |
| CC(=O)N[C@H]1[C@H]([C@H](O)[C@H](O)CO)O[C@@](OC[C@H]2O[C@@H](O[C@H]3[C@H](O)[C@@H](O)[C@H](O)O[C@@H]3CO)[C@H](O)[C@@H](O)[C@H]2O)(C(=O)O)C[C@@H]1O [6′-SL, α-NeuNAc-(2→6)-β-D-Gal-(1→4)-D-Glc] | about two-time significant increases |  | significant increases |
